From patent US10479752B2, “Deuterated tetramethyl dioic acids, compositions comprising them and uses thereof” (SYNDROMEX LTD., priority 2011, dated 2019)
Marks after values point to notes of the source that are not given here.

Columns and labels:
[1] = Chemical and isotopic stability as solutions in DMSO/phosphate buffered saline over 48 hours; conditions: for analyte recovered, yield: summary over the study; for disenrichment of the product (isotopic stability): throughout the time period of the study
Description: A 1 mg/mL stock solution (˜55 mL) of deuterated compound in DMSO was prepared. A measured volume of stock (7.5 mL) was dispensed in to each of seven vials. To each vial was added a measured volume of PBS (aq) (3.0 mL), and each vial was agitated to mix. The vials were then placed in a thermostatically-controlled oven set to 37° C. At each time-point (0 h, 2 h, 4 h, 24 h, 48 h) a vial was drawn from the oven. To the vial was added MTBE (9.0 mL), and the mixture was stirred vigorously for 5 min. The layers were separated, and the MTBE layer was agitated with DI water (3.75 mL) for 1 min. The layers were separated. The MTBE layer was dried with MgSO4 for >1 h, and then filtered through a PTFE syringe filter into a tared vial. The solution was concentrated in vacuo to a solid residue, and the mass of the residue was calculated and recorded. To the residue a measured volume of MeOH was added to make (theoretically) a 2.5 mg/mL solution. In this case, 3.00 mL MeOH was added to each vial which theoretically contained 7.5 mg of compound. The content of each solution was measured by quantitative HPLC analysis (by comparison to a standard of known concentration). The MeOH solutions were then recovered, concentrated in vacuo to a solid, and then analyzed by GCMS to determine isotopic enrichment as the methyl ester derivatives.

[2] = Comparative oral bioavailability / pharmacokinetic study, single intravenous and oral administration; format: in vivo; conditions: rat
Description: The pharmacokinetic properties and the oral bioavailability were investigated for the following comparative compounds:
The plasma concentrations of the test items were measured by LC/MS/MS method following single intravenous and oral administration at the doses of 5 mg/kg body weight and 50 mg/kg body weight, respectively. Following intravenous administration small inter-individual variability was observed. Following i.v administration, the highest plasma concentrations were measured at the first sampling time-point (5 minutes) followed by a biphasic continuous decrease. […] The peak concentrations, tmax and the apparent terminal elimination half-lives (t1/2) were the followings:
The vehicle for oral administration was prepared in advance. Preparation: 1 g of carboxymethylcellulose sodium salt was dissolved in 100 ml of Humaqua. The vehicle was prepared at least 2 days prior to formulation of the test items. The vehicle was stored in a refrigerator when not in use.
The required amount of test item was weighed on an analytical balance, transferred into a suitable vial. The test item was dissolved in the required volume of N,N-dimethylacetamide (40% of the final volume). Dissolution of the test item was facilitated by gentle mixing by vortex. The solution was diluted with the suitable volume of PEG400 (40% of the final volume) then Salsol A (20% of the final volume). The final concentration of the test item in the solution was 5 mg/ml. The formulations were prepared freshly on the day of administration.
The required amount of test item was weighed on an analytical balance, transferred into a test tube and mixed with the suitable volume of 1% CMC to achieve the final concentration of 25 mg/ml. The suspension was sonicated twice in bath sonicator for 30 min at 40 C (each round), and left overnight at room temperature. On the following day, the suspension was sonicated again (bath sonicator, 30 min, 40° C.) and further homogenized in a glass/glass homogenizer trying to reaching an homogenous suspension. In spite of the above procedure the quality (homogeneity) of the suspension was not perfect. The suspension was stored at room temperature till administration.
Species/Strain rat/Wistar (Crl:(WI)BR rats)
Number of animals: 24 males (at least 32 for cannulation*)
After the acclimatization period, rats were equipped with a jugular vein cannula under isoflurane anesthesia. The following day the animals were used for the study. In the morning the rats were checked for health status and blood sampling before assigning them into the experimental group.
The terminal elimination phase was defined on the basis of the last 3-5 measured concentration except rat A4. […] The central volume of distribution (Vc: […]) was approximately equal to the total blood volume. The volume of distribution estimated for the steady state situation (Vss: 97.3-143 ml/kg) remained also small compared to the total extracellular fluid volume (˜300 ml/kg). The clearance was also very small for all experimental compound analogues. The smallest clearance was obtained for Compound 7: 23.2 ml/h/kg.

[3] = DMSO/PBS solution, 37° C., 24 h
[4] = DMSO/PBS solution, 37° C., 48 h
[5] = Original Sample (before the stability study)
[6] = DMSO/PBS solution, 37° C., 96 h

Row | SMILES | GC/MS IE (isotopic enrichment) ([1]; DMSO/PBS solution, 37° C., 0 h) | HPLC Area Percentage ([1]; DMSO/PBS solution, 37° C., 0 h) | HPLC Assay ([1]; DMSO/PBS solution, 37° C., 0 h) | GC/MS IE (isotopic enrichment) ([1]; DMSO/PBS solution, 37° C., 2 h) | HPLC Area Percentage ([1]; DMSO/PBS solution, 37° C., 2 h) | HPLC Assay ([1]; DMSO/PBS solution, 37° C., 2 h) | GC/MS IE (isotopic enrichment) ([1]; DMSO/PBS solution, 37° C., 4 h) | HPLC Area Percentage ([1]; DMSO/PBS solution, 37° C., 4 h) | HPLC Assay ([1]; DMSO/PBS solution, 37° C., 4 h) | GC/MS IE (isotopic enrichment) [1, 3] | HPLC Area Percentage [1, 3] | HPLC Assay [1, 3] | GC/MS IE (isotopic enrichment) [1, 4] | HPLC Area Percentage [1, 4] | HPLC Assay [1, 4] | analyte recovered, yield ([1]; DMSO/PBS solution, 37° C.) | disenrichment of the product (isotopic stability) ([1]; DMSO/PBS solution, 37° C.) | HPLC Area Percentage [1, 5] | GC/MS IE (isotopic enrichment) [1, 6] | HPLC Area Percentage [1, 6] | other results
1 | [2H]C([2H])([2H])C(CCCCCCCCCCCCC(CC(=O)O)(C([2H])([2H])[2H])C([2H])([2H])[2H])(CC(=O)O)C([2H])([2H])[2H] [Compound 6, 3,3,16,16-[D12]Tetramethyl-1,18-octadecanedioic acid] | 99.2% | 98.4% | 39.0% | 99.0% | 98.6% | 33.1% | 99.1% | 97.9% | 35.6% | 99.0% | 98.5% | 39.8% | 99.1% | 98.7% | 59.6% | about 95% | No disenrichment | 100.0% | – | – | –
2 | [2H]C([2H])(C(=O)O)C(C)(C)CCCCCCCCCCC(C)(C)C([2H])([2H])C(=O)O [Compound 2, 3,3,14,14-Tetramethyl-1,16-[2-D2,15-D2]hexadecanediol acid] | 97.9% | 94.9% | 67.4% | 98.0% | 95.5% | 65.1% | 98.0% | 95.4% | 62.4% | 98.0% | 95.2% | 86.0% | 98.0% | 96.0% | – | approximately 90% | – | 97.0% | 98.0% | 96.1% | HPLC Assay [1, 6]: 76.8%; chemical purity (HPLC area percent) with respect to related substances ([1]; DMSO/PBS solution, 37° C., all samples through the study): around 96%
3 | [2H]C([2H])(C(=O)O)C(C)(C)CCCCCCCCCCCCC(C)(C)C([2H])([2H])C(=O)O [Compound 5, 3,3,16,16-tetramethyl-1,18-[2-D2,17-D2]octadecanedioic acid] | 96.3% | 98.4% | 57.0% | 95.9% | 98.0% | 44.6% | 96.0% | 98.5% | 46.3% | 96.0% | 98.4% | 95.3% | 95.5% | 98.0% | 213.8%* | about 95% | No disenrichment | 100.0% | 96.1% | 98.7% | HPLC Assay [1, 6]: 79.8%
4 | CC(C)(CCCCCCCCCCC(C)(C)CC(=O)O)CC(=O)O [Compound 1″, reference compound] | – | – | – | – | – | – | – | – | – | – | – | – | – | – | – | – | – | – | – | – | C0 ([2]; 5 mg/kg iv dose, Mean CV (%)): 56.1 (6.2%) μg/ml; t1/2 ([2]; 5 mg/kg iv dose, Mean CV (%)): 2.68 (6.0%) h; AUCinf ([2]; 5 mg/kg iv, Mean CV (%)): 124 (23.6%) h * μg/ml; Cmax ([2]; 50 mg/kg po dose, Mean CV (%)): 103 (24.2%) μg/ml; t1/2 ([2]; 50 mg/kg po dose, Mean CV (%)): 2.43 (57.6%) h; tmax ([2]; 50 mg/kg po dose, Mean CV (%)): 3.5 (79.5%) h; F (oral bioavailability) ([2]; 50 mg/kg po vs 5 mg/kg iv, Mean (CV %)): 69.6 (29.4) %; AUCinf ([2]; 50 mg/kg po, Mean CV (%)): 863 (29.4%) h * μg/ml
